Data: publication PMC4128814, “A High Throughput Screen Identifies Potent and Selective Inhibitors to Human Epithelial 15-Lipoxygenase-2” (PLoS ONE, 2014)

Experiments:
Format in all cases: biochemical
12-LOX = target: T1, 12-LOX (Homo sapiens, UniProt P18054); assay: Lipoxygenase UV-Vis assay, 12-LOX; details: estimated from one inhibitor point at 20 µM; 10 µM AA
T1 construct: His6 (N); made in house
T1 sequence (P18054 1-663): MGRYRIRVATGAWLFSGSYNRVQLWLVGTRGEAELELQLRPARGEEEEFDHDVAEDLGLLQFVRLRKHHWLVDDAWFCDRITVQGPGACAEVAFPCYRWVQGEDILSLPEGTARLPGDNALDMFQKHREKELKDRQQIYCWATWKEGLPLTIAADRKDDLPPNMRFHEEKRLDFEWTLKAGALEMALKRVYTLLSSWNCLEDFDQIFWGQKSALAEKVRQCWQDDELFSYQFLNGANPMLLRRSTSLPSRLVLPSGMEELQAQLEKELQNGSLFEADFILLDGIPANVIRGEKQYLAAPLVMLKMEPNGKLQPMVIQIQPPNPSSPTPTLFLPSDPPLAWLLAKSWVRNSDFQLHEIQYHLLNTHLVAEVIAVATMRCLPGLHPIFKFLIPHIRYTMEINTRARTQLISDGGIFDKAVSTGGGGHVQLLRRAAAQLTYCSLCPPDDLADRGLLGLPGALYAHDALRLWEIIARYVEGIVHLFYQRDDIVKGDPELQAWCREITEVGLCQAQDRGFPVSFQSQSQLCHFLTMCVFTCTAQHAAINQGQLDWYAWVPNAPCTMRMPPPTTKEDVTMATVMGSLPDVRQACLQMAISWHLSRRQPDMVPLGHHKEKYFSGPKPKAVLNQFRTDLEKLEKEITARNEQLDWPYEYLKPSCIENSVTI
Experimental: Human leukocyte 5-lipoxygenase (5-LOX) was expressed as a non-tagged protein and used as a crude ammonium sulfate protein fraction, as published previously, [20].
The reactions were initiated by adding 200 nM 15-LOX-2, 30 nM 12-LOX, 40 nM 15-LOX-1, or approximately 100–300 nM (5–10 µL) of 5-LOX crude extract to a cuvette with 2 mL reaction buffer, constantly stirred using a magnetic stir bar at room temperature (22°C). Reaction buffers used for various LOX isozymes were as follows: 25 mM HEPES (pH 7.3), 0.3 mM CaCl2, 0.1 mM EDTA, 0.2 mM ATP, 0.01% Triton X-100, 10 µM AA for the crude, ammonium sulfate precipitated 5-LOX; and 25 mM HEPES (pH 7.5), 0.01% Triton X-100, 10 µM AA for 15-LOX-2, 15-LOX-1, and 12-LOX. The substrate concentration was quantitatively determined by allowing the enzymatic reaction to go to completion in the presence of 15-LOX-2. […] The data were then plotted against inhibitor concentration, followed by a hyperbolic saturation curve fit (assuming total enzyme concentration [E]≪IC50). […] All inhibitors were stored at −20°C in DMSO. NDGA was utilized as positive control for the selectivity assays for the various LOX isozymes.

ovine COX-1 = target: T2, ovine COX-1 (Ovis aries, UniProt P05979); assay: Cyclooxygenase assay (oxygen electrode), COX-1; details: estimated from one inhibitor point at 20 µM; 100 µM AA
T2 construct: purchased Cayman Chemical
T2 sequence (P05979 25-600): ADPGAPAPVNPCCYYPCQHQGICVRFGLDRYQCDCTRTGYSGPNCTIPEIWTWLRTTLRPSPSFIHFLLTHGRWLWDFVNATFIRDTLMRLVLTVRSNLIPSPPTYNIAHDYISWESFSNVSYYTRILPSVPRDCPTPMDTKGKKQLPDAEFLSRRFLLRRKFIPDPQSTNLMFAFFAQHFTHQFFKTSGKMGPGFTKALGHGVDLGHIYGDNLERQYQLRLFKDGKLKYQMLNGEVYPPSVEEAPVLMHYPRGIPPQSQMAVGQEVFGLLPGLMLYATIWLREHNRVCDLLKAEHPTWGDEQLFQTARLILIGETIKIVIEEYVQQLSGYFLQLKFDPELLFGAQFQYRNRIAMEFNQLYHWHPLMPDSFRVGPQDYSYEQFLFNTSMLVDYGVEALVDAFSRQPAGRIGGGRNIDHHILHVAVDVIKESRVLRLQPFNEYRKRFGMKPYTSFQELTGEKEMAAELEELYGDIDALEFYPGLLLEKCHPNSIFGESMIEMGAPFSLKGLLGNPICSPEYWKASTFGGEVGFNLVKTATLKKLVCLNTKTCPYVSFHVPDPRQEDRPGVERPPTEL
Experimental: (§1) Cyclooxygenase activity assay was performed as previously described. Approximately 3 µg of either ovine COX-1 (COX-1) or human recombinant COX-2 (COX-2) (Cayman Chemical) were added to buffer containing 0.1 M Tris-HCl buffer (pH 8.0), 5 mM EDTA, 2 mM phenol and 1 µM hematin at 37°C. The selected inhibitors were added to the reaction cell, followed by an incubation of 5 minutes with either of the COX enzymes. The reaction was then initiated by adding 100 µM AA in the reaction cell, as indicated in enzymatic protocol (Cayman Chemicals). Data were collected using a Hansatech DW1 oxygen electrode and the consumption of oxygen was recorded. Indomethacin and the solvent (DMSO), were used as positive and negative controls, respectively, and the percent inhibition of the enzyme was calculated by comparing the rates of the samples to the controls.

human recombinant COX-2 = target: T3, human recombinant COX-2 (Homo sapiens, UniProt P35354); assay: Cyclooxygenase assay (oxygen electrode), COX-2; details: estimated from one inhibitor point at 20 µM; 100 µM AA
T3 construct: purchased Cayman Chemical
T3 sequence (P35354 18-604): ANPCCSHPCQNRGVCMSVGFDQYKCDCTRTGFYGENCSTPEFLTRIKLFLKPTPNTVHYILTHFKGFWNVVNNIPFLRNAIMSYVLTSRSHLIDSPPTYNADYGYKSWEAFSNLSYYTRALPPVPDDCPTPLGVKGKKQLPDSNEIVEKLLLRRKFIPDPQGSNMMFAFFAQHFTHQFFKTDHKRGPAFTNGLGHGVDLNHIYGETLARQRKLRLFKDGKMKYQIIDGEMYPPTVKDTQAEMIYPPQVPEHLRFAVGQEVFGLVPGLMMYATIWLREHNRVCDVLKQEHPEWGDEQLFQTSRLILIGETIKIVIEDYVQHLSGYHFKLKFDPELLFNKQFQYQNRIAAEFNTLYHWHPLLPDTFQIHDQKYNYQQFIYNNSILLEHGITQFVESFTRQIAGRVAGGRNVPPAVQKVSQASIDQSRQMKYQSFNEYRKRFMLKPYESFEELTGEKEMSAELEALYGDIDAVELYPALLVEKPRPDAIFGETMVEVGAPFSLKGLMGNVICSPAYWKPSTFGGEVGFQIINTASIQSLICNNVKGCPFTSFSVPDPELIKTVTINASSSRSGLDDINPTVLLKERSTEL
Experimental: as §1

Row | IC50 (12-LOX) [µM] | IC50 (ovine COX-1) [µM] | IC50 (human recombinant COX-2) [µM] | SMILES
1 | > 100 | > 50 | > 100 | Clc1ccc(-c2nnc(C3CCCCC3)o2)cc1 [MLS000545091]
2 | > 100 | > 100 | > 100 | Cc1ccc(CSc2ncn(-c3ccccc3)n2)cc1 [MLS000536924]
